What was measured:
Type in all cases: biochemical
PKC theta kinase = PKC theta kinase (Homo sapiens, UniProt Q04759); experiment: PKC theta coupled-enzyme (NADH consumption) kinase assay; conditions: 18 nM PKC theta, 240 μM ATP, 30° C., initial rate at 340 nm; read-out: Ki PKC theta
Procedure: (§1) An assay buffer solution was prepared which consisted of 100 mM HEPES (pH 7.5), 10 mM MgCl2, 25 mM NaCl, 0.1 mM EDTA and 0.01% Brij. […] To 60 μL of this enzyme buffer, in a 384 well plate, was added 2 μL of VRT stock solution in DMSO. […] The enzyme reaction was initiated by the addition of 5 μL stock ATP solution prepared in assay buffer to a final assay concentration of 240 μM. Initial rate data was determined from the rate of change of absorbance at 340 nm (corresponding to stoichiometric consumption of NADH) using a Molecular Devices Spectramax plate reader (Sunnyvale, Calif.) over 15 mins at 30° C. For each Ki determination 12 data points covering the VRT concentration range of 0-20 μM were obtained in duplicate (DMSO stocks were prepared from an initial 10 mM VRT stock with subsequent 1:2 serial dilutions). Ki values were calculated from initial rate data by non-linear regression using the Prism software package (Prism 4.0a, Graphpad Software, San Diego, Calif.).

PKC delta kinase = PKC delta kinase (Homo sapiens, UniProt Q05655); experiment: PKC delta coupled-enzyme (NADH consumption) kinase assay; conditions: 46 nM PKC delta, 150 μM ATP, 30° C., initial rate at 340 nm
Procedure: as §1, with “To 16” for “To 60”, “added 1” for “added 2”, “of 16” for “of 5”, “of 150” for “of 240”

PKC alpha kinase = PKC alpha kinase (Homo sapiens, UniProt P17252); experiment: PKC alpha coupled-enzyme (NADH consumption) kinase assay; conditions: 4.5 nM PKC alpha, 130 μM ATP, 100 μM CaCl2, 30° C.; read-out: Ki PKC alpha
Procedure: An assay buffer solution was prepared which consisted of 100 mM HEPES (pH 7.5), 10 mM MgCl2, 25 mM NaCl, 0.1 mM EDTA, 100 μM CaCl2 and 0.01% Brij. An enzyme buffer containing reagents to final assay concentrations of 0.002% Triton X-100, 100 μg/mL Phosphatidylserine, 20 μg/mL Diacylglycerol, 360 μM NADH, 3 mM phosphoenolpyruvate, 70 μg/mL pyruvate kinase, 24 μg/mL lactate dehydrogenase, 2 mM DTT, 150 μM substrate peptide ([…] SEQ ID NO. 1) and 4.5 nM PKC alpha kinase was prepared in assay buffer. To 16 μL of this enzyme buffer, in a 384 well plate, was added 1 μL of VRT stock solution in DMSO. The mixture was allowed to equilibrate for 10 mins at 30° C. The enzyme reaction was initiated by the addition of 16 μL stock ATP solution prepared in assay buffer to a final assay concentration of 130 μM. Initial rate data was determined from the rate of change of absorbance at 340 nm (corresponding to stoichiometric consumption of NADH) using a Molecular Devices Spectramax plate reader (Sunnyvale, Calif.) over 15 mins at 30° C. For each Ki determination 12 data points covering the VRT concentration range of 0-20 μM were obtained in duplicate (DMSO stocks were prepared from an initial 10 mM VRT stock with subsequent 1:2 serial dilutions). Ki values were calculated from initial rate data by non-linear regression using the Prism software package (Prism 4.0a, Graphpad Software, San Diego, Calif.).

Chain of PKC theta kinase (Q04759 whole entry): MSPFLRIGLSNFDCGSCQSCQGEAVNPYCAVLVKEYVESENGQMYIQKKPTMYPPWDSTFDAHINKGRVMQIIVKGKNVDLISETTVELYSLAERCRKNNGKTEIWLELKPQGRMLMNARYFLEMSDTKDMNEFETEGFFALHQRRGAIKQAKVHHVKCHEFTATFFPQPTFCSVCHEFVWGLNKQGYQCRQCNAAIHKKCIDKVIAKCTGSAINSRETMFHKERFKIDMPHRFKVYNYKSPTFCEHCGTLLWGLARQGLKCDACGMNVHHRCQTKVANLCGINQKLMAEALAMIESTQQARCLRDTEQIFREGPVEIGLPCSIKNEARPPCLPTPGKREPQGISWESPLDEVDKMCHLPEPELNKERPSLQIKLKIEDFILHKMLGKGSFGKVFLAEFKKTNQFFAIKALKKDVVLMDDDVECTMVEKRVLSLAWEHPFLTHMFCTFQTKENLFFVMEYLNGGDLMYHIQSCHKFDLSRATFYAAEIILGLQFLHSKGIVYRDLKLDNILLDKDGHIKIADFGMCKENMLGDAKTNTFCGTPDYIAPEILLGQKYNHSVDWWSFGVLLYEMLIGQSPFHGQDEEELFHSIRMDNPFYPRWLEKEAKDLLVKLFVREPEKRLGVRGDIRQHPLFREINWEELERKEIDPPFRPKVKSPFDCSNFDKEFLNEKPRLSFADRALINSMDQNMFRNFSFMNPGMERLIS
Chain of PKC delta kinase (Q05655 whole entry): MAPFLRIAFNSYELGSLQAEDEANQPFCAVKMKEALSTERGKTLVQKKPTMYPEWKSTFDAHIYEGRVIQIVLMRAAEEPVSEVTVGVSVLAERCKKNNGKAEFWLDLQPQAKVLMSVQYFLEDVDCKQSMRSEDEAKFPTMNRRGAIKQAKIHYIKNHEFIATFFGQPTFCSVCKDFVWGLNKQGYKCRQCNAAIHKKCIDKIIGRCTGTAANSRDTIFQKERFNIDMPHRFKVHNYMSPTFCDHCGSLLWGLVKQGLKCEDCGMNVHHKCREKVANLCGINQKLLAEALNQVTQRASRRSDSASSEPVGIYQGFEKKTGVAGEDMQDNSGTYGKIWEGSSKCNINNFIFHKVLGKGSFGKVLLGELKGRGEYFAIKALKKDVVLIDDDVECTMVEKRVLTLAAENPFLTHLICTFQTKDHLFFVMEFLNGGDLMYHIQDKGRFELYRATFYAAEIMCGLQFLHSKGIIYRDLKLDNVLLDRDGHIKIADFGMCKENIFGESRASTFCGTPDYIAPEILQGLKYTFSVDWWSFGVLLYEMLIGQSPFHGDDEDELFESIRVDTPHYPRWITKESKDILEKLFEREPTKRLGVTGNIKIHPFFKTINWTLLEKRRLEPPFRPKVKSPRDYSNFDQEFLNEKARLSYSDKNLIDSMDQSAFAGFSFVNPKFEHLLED

Compound	Ki (PKC theta kinase)	Ki (PKC delta kinase)	Ki (PKC alpha kinase)
CC(C)(O)[C@@](C)(O)[C@@H]1CN(c2nc(-c3n[nH]c4ncccc34)c(F)cc2F)CCN1 [Compound 41]	< 1 nM	< 500 nM	< 500 nM
CC(C)(O)[C@@](C)(O)[C@@H]1CN(c2nc(-c3n[nH]c4ncccc34)c(F)cc2Cl)CCN1 [Compound 42]	< 1 nM	< 50 nM	< 2800 nM
CC(C)[C@@](C)(O)[C@@H]1CN(c2nc(-c3n[nH]c4ncccc34)c(C#N)cc2F)CCN1 [Compound 43]	< 50 nM	> 1250 nM	> 1250 nM

Next, values leading:

Ki (PKC theta kinase)	Ki (PKC delta kinase)	Ki (PKC alpha kinase)	Compound
< 1 nM	< 10 nM	< 500 nM	CC(C)[C@@](C)(O)[C@@H]1CN(c2nc(-c3n[nH]c4ncccc34)c(F)cc2CO)CCN1 [Compound 44]
< 500 nM	> 1250 nM	> 1250 nM	CC(CO)[C@@](C)(O)[C@@H]1CN(c2nc(-c3n[nH]c4ncccc34)c(F)cc2Cl)CCN1 (stereo partly drawn) [Compound 45]

From patent US9067932B2, “Pyrazolopyridine kinase inhibitors” (Vertex Pharmaceuticals Incorporated, priority 2010, dated 2015)
